± gives the standard deviation of the averaged measurements.
test system: MCF7; test: HRG-induced Akt activation (dPAkt = log2 pAkt/Akt HRG-stimulated minus log2 pAkt/Akt basal) (log2 ratio difference); higher = stronger HRG-induced Akt(T308) phosphorylation; settings: miRNA mimic concentration 10 nM; time after transfection 72 h; heregulin 10 ng/ml; stimulation time 1 h
In short: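 Akt activation induced by heregulin was calculated as the difference between stimulated and unstimulated log ratios of phospho-Akt to total Akt, then averaged across replicates. The ratio was taken as log2(pAkt/Akt) from In-Cell Western readings of phospho-Akt(T308) and total Akt on an Odyssey, corrected for column-wise fixation decay. Before reading, MCF7 cells ([…], 96-well plates) transfected with 879 miRNA mimics at 10 nM final via Lipofectamine RNAiMax were, after 72 h, given 10 ng/ml heregulin-beta1 for 1 h or no stimulus, then fixed with 4% PFA. Two biological replicates were run.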

UGUGACUGGUUGACCAGAGGGG and UGUGAGGUUGGCAUUGUUGUCU are within error of each other in “HRG-induced Akt activation (log2)” value: 1.6 ± 0.2 for the first, 2.02 ± 0.55 for the second.

UGUGCAAAUCCAUGCAAAACUGA and UGUGCAAAUCUAUGCAAAACUGA are within 0.2 log units of each other in “HRG-induced Akt activation (log2)” value: 0.657 ± 0.2 for the first, 0.8263 ± 0.0053 for the second.

First: UGUGCGCAGGGAGACCUCUCCC
Second: UGUGCUUGCUCGUCCCGCCCGCA
The “HRG-induced Akt activation (log2)” value of the first is lower: 0.835 ± 0.095 for the first, 1.82 ± 0.029 for the second.

Compared with UGUGUCACUCGAUGACCACUGU, UGUUCAUGUAGAUGUUUAAGC is lower in “HRG-induced Akt activation (log2)” value: 2.42 ± 0.089 for the first, 1.08 ± 0.15 for the second.

UGUUUUGAUAACAGUAAUGU and UUAAGACUUGCAGUGAUGUUU are within 0.2 log units of each other in “HRG-induced Akt activation (log2)” value: 1.44 ± 0.064 for the first, 1.25 ± 0.66 for the second.

First: UUAAUAUCGGACAACCAUUGU
Second: UUAAUGCUAAUCGUGAUAGGGGU
The “HRG-induced Akt activation (log2)” value of the first is higher: 1.72 ± 0.21 for the first, 0.789 ± 0.062 for the second.

UUACAGUUGUUCAACCAGUUACU and UUAGGCCGCAGAUCUGGGUGA are within 0.2 log units of each other in “HRG-induced Akt activation (log2)” value: 1.44 ± 0.019 for the first, 1.39 ± 0.89 for the second.

UUAGGGCCCUGGCUCCAUCUCC and UUAUAAAGCAAUGAGACUGAUU are within error of each other in “HRG-induced Akt activation (log2)” value: 1.954 ± 0.014 for the first, 1.5 ± 0.79 for the second.

First: UUAUAAUACAACCUGAUAAGUG
Second: UUAUCAGAAUCUCCAGGGGUAC
The “HRG-induced Akt activation (log2)” value of the first is lower: 1.04 ± 0.33 for the first, 2.16 ± 0.2 for the second.

UUAUGGUUUGCCUGGGACUGAG and UUAUUGCUUAAGAAUACGCGUAG are within 0.2 log units of each other in “HRG-induced Akt activation (log2)” value: 1.74 ± 0.28 for the first, 1.64 ± 0.095 for the second.

UUCAACGGGUAUUUAUUGAGCA and UUCAAGUAAUCCAGGAUAGGCU are within 0.2 log units of each other in “HRG-induced Akt activation (log2)” value: 1.34 ± 0.24 for the first, 1.19 ± 0.24 for the second.

UUCAAGUAAUUCAGGAUAGGU and UUCAAGUAAUUCAGGUG are within 0.2 log units of each other in “HRG-induced Akt activation (log2)” value: 1.06 ± 0.39 for the first, 1.22 ± 0.15 for the second.

First: UUCACAAGGAGGUGUCAUUUAU
Second: UUCACAGGGAGGUGUCAU
The “HRG-induced Akt activation (log2)” value of the first is lower: 1.442 ± 0.013 for the first, 1.82 ± 0.08 for the second.

UUCACAGUGGCUAAGUUCCGC and UUCACAGUGGCUAAGUUCUGC are the same in “HRG-induced Akt activation (log2)” value: 1.73 ± 0.22 for the first, 1.73 ± 0.061 for the second.

UUCACAUUGUGCUACUGUCUGC and UUCACCACCUUCUCCACCCAGC are within 0.2 log units of each other in “HRG-induced Akt activation (log2)” value: 1.59 ± 0.03 for the first, 1.57 ± 0.62 for the second.

First: UUCAUUCGGCUGUCCAGAUGUA
Second: UUCAUUUGGUAUAAACCGCGAUU
The “HRG-induced Akt activation (log2)” value of the first is lower: 1.48 ± 0.1 for the first, 2.42 ± 0.062 for the second.

UUCCCUUUGUCAUCCUAUGCCU and UUCCCUUUGUCAUCCUUCGCCU are within error of each other in “HRG-induced Akt activation (log2)” value: 0.793 ± 0.043 for the first, 1 ± 0.3 for the second.

UUCCUAUGCAUAUACUUCUUUG and UUCUCAAGGAGGUGUCGUUUAU are within 0.2 log units of each other in “HRG-induced Akt activation (log2)” value: 1.11 ± 0.32 for the first, 0.993 ± 0.67 for the second.

Compared with UUCUCCAAAAGAAAGCACUUUCUG, UUCUCCAAAAGGGAGCACUUUC is lower in “HRG-induced Akt activation (log2)” value: 2.57 ± 0.12 for the first, 2.3 ± 0.097 for the second.

UUCUCGAGGAAAGAAGCACUUUC and UUCUGGAAUUCUGUGUGAGGGA are within 0.2 log units of each other in “HRG-induced Akt activation (log2)” value: 1.61 ± 0.16 for the first, 1.78 ± 0.2 for the second.

First: UUGAAAGGCUAUUUCUUGGUC
Second: UUGAGAAGGAGGCUGCUG
The “HRG-induced Akt activation (log2)” value of the first is higher: 2.39 ± 0.036 for the first, 1.18 ± 0.17 for the second.

First: UUGAGAAUGAUGAAUCAUUAGG
Second: UUGCAGCUGCCUGGGAGUGACUUC
The “HRG-induced Akt activation (log2)” value of the first is higher: 1.82 ± 0.5 for the first, 0.96 ± 0.045 for the second.

UUGCAUAGUCACAAAAGUGAUC and UUGCAUAUGUAGGAUGUCCCAU are within 0.2 log units of each other in “HRG-induced Akt activation (log2)” value: 1.36 ± 0.096 for the first, 1.32 ± 0.079 for the second.

UUGCUCACUGUUCUUCCCUAG and UUGGCCACAAUGGGUUAGAAC are within 0.2 log units of each other in “HRG-induced Akt activation (log2)” value: 0.86933 ± 0.00015 for the first, 1.02 ± 0.1 for the second.

UUGGGACAUACUUAUGCUAAA and UUGGGAUCAUUUUGCAUCCAUA are within 0.2 log units of each other in “HRG-induced Akt activation (log2)” value: 1.28 ± 0.2 for the first, 1.13 ± 0.3 for the second.

UUGGGGAAACGGCCGCUGAGUG and UUGUACAUGGUAGGCUUUCAUU are within error of each other in “HRG-induced Akt activation (log2)” value: 2.08 ± 0.097 for the first, 1.7 ± 0.31 for the second.

Compared with UUGUGCUUGAUCUAACCAUGU, UUGUGUCAAUAUGCGAUGAUGU is higher in “HRG-induced Akt activation (log2)” value: 1.1 ± 0.016 for the first, 1.768 ± 0.00038 for the second.

UUUAACAUGGGGGUACCUGCUG and UUUAGAGACGGGGUCUUGCUCU are within 0.2 log units of each other in “HRG-induced Akt activation (log2)” value: 1.59 ± 0.42 for the first, 1.54 ± 0.51 for the second.

UUUAGGAUAAGCUUGACUUUUG and UUUCAAGCCAGGGGGCGUUUUUC are within error of each other in “HRG-induced Akt activation (log2)” value: 1.37 ± 0.39 for the first, 0.989 ± 0.21 for the second.

UUUCCAUAGGUGAUGAGUCAC and UUUCCGGCUCGCGUGGGUGUGU are within error of each other in “HRG-induced Akt activation (log2)” value: 1.09 ± 0.68 for the first, 1.627 ± 0.015 for the second.

Compared with UUUGAGGCUACAGUGAGAUGUG, UUUGGCAAUGGUAGAACUCACACU is lower in “HRG-induced Akt activation (log2)” value: 2.06 ± 0.034 for the first, 1.75 ± 0.06 for the second.

UUUGGCACUAGCACAUUUUUGCU and UUUGGUCCCCUUCAACCAGCUA are within 0.2 log units of each other in “HRG-induced Akt activation (log2)” value: 1.535 ± 0.007 for the first, 1.61 ± 0.066 for the second.

UUUGGUCCCCUUCAACCAGCUG and UUUGUGACCUGGUCCACUAACC are within error of each other in “HRG-induced Akt activation (log2)” value: 1.54 ± 0.13 for the first, 1.16 ± 0.88 for the second.

UUUGUUCGUUCGGCUCGCGUGA and UUUUCAACUCUAAUGGGAGAGA are within error of each other in “HRG-induced Akt activation (log2)” value: 1.23 ± 0.27 for the first, 1.48 ± 0.1 for the second.

Compared with UUUUGCAAUAUGUUCCUGAAUA, UUUUGCACCUUUUGGAGUGAA is higher in “HRG-induced Akt activation (log2)” value: 1.01 ± 0.24 for the first, 1.55 ± 0.13 for the second.

UUUUGCGAUGUGUUCCUAAUAU and UUUUUCAUUAUUGCUCCUGACC are within 0.2 log units of each other in “HRG-induced Akt activation (log2)” value: 1.67 ± 0.12 for the first, 1.62 ± 0.14 for the second.

Reference: the supplement of paper PMC4314810
